Data taken from patent US20080312581A1, “Peptosomes for Use in Acoustically Mediated Intracellular Drug Delivery in vivo” (Biovaluation & Analysis, Inc., priority 2007, published 2008).

Tested on: Henrietta Lacks (HeLa) cells and human aortic smooth muscle cells (AoSMC)
Assay: Ultrasound-mediated peptosome rupture and intracellular calcein delivery, flow cytometry
Assay type: cell-based
Conditions: calcein released from peptosomes, contrast agent present
Text: Ultrasound. Ultrasonic energy is produced using an immersible, focused, piezoceramic transducer. In this experimental system, two different matching resistance networks are necessary, allowing production of sound at 1.0 MHz and 3.0 MHz, similar to a method known in the art (Guzmán et al., 2001a, 2001b, 2002, and 2003; and […] et al., 2006). A sinusoidal waveform is produced by, for example, programmable waveform generators (Stanford Research Instruments, Sunnyvale, Calif.) used in conjunction to control pulse length, frequency, and peak-to-peak voltage. The sinusoidal waveform is amplified by an RF broadband power amplifier (Electronic Navigation Industries, Rochester, N.Y.) before passing through a matching network and controlling the response of the transducer. The transducer is housed in a polycarbonate tank (FIG. 11 [601]) -34.5×32×40 cm; containing approximately 34 liters of deionized, distilled, and partially degassed water at room temperature (i.e., 22° C. to 23° C.). A thick acoustic absorber is mounted opposite the transducer to minimize standing-wave formation (not illustrated). […] A metal rod (606) is immediately inserted into the open end of the sample chamber and then attached to the three-axis positioning system (603), placing the sample in the desired location as determined by the hydrophone (604). […]

O=C(O)CN(CC(=O)O)Cc1cc2c(cc1O)Oc1cc(O)c(CN(CC(=O)O)CC(=O)O)cc1C21OC(=O)c2ccccc21 [calcein, Calcein]
calcein uptake into cells (mild ultrasound conditions): low levels | calcein uptake into cells (moderate ultrasound conditions): as many as one-third of cells
